In ChEMBL document CHEMBL4396970, “Benzothiazole-based compounds as potent endothelial lipase inhibitors” (Bioorg Med Chem Lett, 2019):
Calls of active or inactive are those of the source. The rule behind the calls is not given here.

test system: not listed separately; assay: Permeability across apical to basolateral side in human Caco2 cells; format: ADME, cell-based; details: Caco-2, read-out: permeability

Papp A→B [×10⁻⁶ cm/s] | Compound
2 | N#CC(C(=O)NCC(=O)NC1CC1)c1nc2ccc(-c3ccccc3)cc2s1 (racemic)
1.7 | N#CC(C(=O)NCC(=O)NC1CC1)c1nc2ccc(-c3ccc(C(=O)N4CCOCC4)cc3)cc2s1 (racemic)

test system: not listed separately; assay: AUC (0 to 24 hrs) in BALB/c mouse at 10 mg/kg, po; format: ADME, organism-based; set-up: time < 24 hr, dose 10 mg/kg, route oral; details: in vivo

AUC(0-t) at 24 h [µM·h] | Compound
18 | N#CC(C(=O)NCC(=O)NC1CC1)c1nc2ccc(-c3ccccc3)cc2s1 (racemic)

test system: not listed separately; assay: Tmax in BALB/c mouse at 10 mg/kg, po; format: ADME, organism-based; details: in vivo

Tmax [h] | Compound
0.25 | N#CC(C(=O)NCC(=O)NC1CC1)c1nc2ccc(-c3ccccc3)cc2s1 (racemic)

biological target: Cytochrome P450 3A4 (Homo sapiens, UniProt P08684); assay: Inhibition of CYP3A4 (unknown origin); format: ADME; details: not given
Sequence (P08684 whole entry): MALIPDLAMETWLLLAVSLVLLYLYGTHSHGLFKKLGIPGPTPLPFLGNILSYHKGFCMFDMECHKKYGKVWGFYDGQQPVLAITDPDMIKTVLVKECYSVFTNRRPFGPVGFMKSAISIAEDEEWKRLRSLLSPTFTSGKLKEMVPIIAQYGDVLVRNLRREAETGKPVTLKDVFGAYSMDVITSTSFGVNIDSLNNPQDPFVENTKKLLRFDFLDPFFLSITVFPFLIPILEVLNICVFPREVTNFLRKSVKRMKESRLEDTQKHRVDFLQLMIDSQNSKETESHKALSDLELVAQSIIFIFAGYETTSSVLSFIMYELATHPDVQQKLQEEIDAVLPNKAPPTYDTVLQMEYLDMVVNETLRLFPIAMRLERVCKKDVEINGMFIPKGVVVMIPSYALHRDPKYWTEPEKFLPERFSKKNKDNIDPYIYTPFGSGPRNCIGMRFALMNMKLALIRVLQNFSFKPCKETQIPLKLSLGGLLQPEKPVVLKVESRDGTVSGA

IC50 [µM] | Compound
> 18 | N#CC(C(=O)NCC(=O)NC1CC1)c1nc2ccc(-c3ccccc3)cc2s1 (racemic)
> 18 | N#CC(C(=O)NCC(=O)NC1CC1)c1nc2ccc(-c3ccc(C(=O)N4CCOCC4)cc3)cc2s1 (racemic)

test system: not listed separately; assay: AUC (0 to 24 hrs) in BALB/c mouse at 50 mg/kg, ip measured up to 24 hrs; format: ADME, organism-based; set-up: time < 24 hr, dose 50 mg/kg, route intraperitoneal; details: in vivo

AUC(0-t) at 24 h [µM·h] | Compound
330 | N#CC(C(=O)NCC(=O)NC1CC1)c1nc2ccc(-c3ccccc3)cc2s1 (racemic)

test system: not listed separately; assay: Ratio of Cmin in BALB/c mouse to IC50 for endothelial lipase in human serum; format: ADME; details: in vivo

Ratio | Compound
> 30 | N#CC(C(=O)NCC(=O)NC1CC1)c1nc2ccc(-c3ccccc3)cc2s1 (racemic)

test system: not listed separately; assay: Half life in BALB/c mouse at 50 mg/kg, ip; format: ADME, organism-based; details: in vivo

half-life [h] | Compound
4.7 | N#CC(C(=O)NCC(=O)NC1CC1)c1nc2ccc(-c3ccccc3)cc2s1 (racemic)

test system: Mus musculus; assay: Antiatherosclerotic in C57BL/6 mouse assessed as change in phospholipid level in plasma at 50 mg/kg, ip qd administrated for 2 days and measured 6 hrs post last dose by FPLC analysis; format: functional, organism-based; details: not given

Compound | Activity
N#CC(C(=O)NCC(=O)NC1CC1)c1nc2ccc(-c3ccccc3)cc2s1 (racemic) | inactive

biological target: Cytochrome P450 2C19 (Homo sapiens, UniProt P33261); assay: Inhibition of CYP2C19 (unknown origin); format: ADME; details: not given
Sequence (P33261 whole entry): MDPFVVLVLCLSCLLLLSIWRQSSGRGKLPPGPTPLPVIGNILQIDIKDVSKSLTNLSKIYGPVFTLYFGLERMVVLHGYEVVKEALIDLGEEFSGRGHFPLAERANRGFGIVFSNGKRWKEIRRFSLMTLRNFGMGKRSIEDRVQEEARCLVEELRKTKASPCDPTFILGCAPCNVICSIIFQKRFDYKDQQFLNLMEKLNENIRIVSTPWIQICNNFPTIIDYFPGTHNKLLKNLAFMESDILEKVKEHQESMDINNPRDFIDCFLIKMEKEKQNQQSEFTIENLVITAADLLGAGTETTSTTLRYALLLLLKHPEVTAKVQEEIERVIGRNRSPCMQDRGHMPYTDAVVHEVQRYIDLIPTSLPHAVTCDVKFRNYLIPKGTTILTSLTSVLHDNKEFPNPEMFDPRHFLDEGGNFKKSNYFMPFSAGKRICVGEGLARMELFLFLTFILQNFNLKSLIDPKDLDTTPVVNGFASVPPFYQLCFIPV

IC50 [µM] | Compound
> 18 | N#CC(C(=O)NCC(=O)NC1CC1)c1nc2ccc(-c3ccccc3)cc2s1 (racemic)
> 18 | N#CC(C(=O)NCC(=O)NC1CC1)c1nc2ccc(-c3ccc(C(=O)N4CCOCC4)cc3)cc2s1 (racemic)

test system: not listed separately; assay: Tmax in BALB/c mouse at 50 mg/kg, ip; format: ADME, organism-based; details: in vivo

Tmax [h] | Compound
7 | N#CC(C(=O)NCC(=O)NC1CC1)c1nc2ccc(-c3ccccc3)cc2s1 (racemic)

test system: not listed separately; assay: Plasma concentration in BALB/c mouse at 10 mg/kg, po measured at 24 hrs post dose; format: ADME, organism-based; details: not given

concentration at 24 h [µM] | Compound
0.14 | N#CC(C(=O)NCC(=O)NC1CC1)c1nc2ccc(-c3ccccc3)cc2s1 (racemic)

test system: not listed separately; assay: Tmin in BALB/c mouse at 50 mg/kg, ip; format: ADME, organism-based; details: in vivo

Tmin [h] | Compound
23.8 | N#CC(C(=O)NCC(=O)NC1CC1)c1nc2ccc(-c3ccccc3)cc2s1 (racemic)

biological target: T1, Endothelial lipase (Homo sapiens, UniProt Q9Y5X9); assay: Inhibition of endothelial lipase in human serum; format: cell-free; details: not given
T1 sequence (Q9Y5X9 whole entry): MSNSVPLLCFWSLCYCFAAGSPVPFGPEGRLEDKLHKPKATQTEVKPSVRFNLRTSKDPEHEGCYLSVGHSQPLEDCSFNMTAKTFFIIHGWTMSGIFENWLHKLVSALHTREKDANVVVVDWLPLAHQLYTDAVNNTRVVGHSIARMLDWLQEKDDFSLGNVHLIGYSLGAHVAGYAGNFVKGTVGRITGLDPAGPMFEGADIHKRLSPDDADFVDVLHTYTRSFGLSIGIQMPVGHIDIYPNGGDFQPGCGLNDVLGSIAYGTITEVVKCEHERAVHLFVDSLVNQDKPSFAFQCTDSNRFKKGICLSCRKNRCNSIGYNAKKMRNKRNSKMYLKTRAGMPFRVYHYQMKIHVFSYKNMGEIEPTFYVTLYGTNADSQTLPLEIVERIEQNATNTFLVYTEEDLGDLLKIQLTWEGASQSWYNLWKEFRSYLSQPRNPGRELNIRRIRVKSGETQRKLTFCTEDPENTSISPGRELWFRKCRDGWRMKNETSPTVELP

IC50 [µM] | Compound
0.051 | N#CC(C(=O)NCC(=O)NC1CC1)c1nc2ccc(-c3ccccc3)cc2s1 (racemic)
0.05 | N#CC(C(=O)NCC(=O)NC1CC1)c1nc2ccc(-c3ccc(C(=O)N4CCOCC4)cc3)cc2s1 (racemic)

biological target: Cytochrome P450 2C9 (Homo sapiens, UniProt P11712); assay: Inhibition of CYP2C9 (unknown origin); format: ADME; details: not given
Sequence (P11712 whole entry): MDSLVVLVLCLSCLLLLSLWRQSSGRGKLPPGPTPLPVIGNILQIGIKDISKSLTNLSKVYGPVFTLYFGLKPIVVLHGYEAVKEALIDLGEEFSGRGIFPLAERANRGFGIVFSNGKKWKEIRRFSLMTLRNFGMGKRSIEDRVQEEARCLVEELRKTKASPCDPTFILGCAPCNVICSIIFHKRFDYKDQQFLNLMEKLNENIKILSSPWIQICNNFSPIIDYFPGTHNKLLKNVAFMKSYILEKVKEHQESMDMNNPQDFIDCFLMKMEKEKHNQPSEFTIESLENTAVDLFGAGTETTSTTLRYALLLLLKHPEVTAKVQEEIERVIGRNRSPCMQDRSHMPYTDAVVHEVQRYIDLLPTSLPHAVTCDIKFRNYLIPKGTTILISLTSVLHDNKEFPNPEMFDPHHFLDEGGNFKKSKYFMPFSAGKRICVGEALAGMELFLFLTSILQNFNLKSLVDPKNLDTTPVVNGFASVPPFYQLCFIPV

IC50 [µM] | Compound
> 18 | N#CC(C(=O)NCC(=O)NC1CC1)c1nc2ccc(-c3ccccc3)cc2s1 (racemic)
> 18 | N#CC(C(=O)NCC(=O)NC1CC1)c1nc2ccc(-c3ccc(C(=O)N4CCOCC4)cc3)cc2s1 (racemic)

test system: not listed separately; assay: Permeability of compound at pH 5.0 by PAMPA; format: ADME; details: read-out: permeability

Papp [×10⁻⁶ cm/s] | Compound
162 | N#CC(C(=O)NCC(=O)NC1CC1)c1nc2ccc(-c3ccccc3)cc2s1 (racemic)
10.4 | N#CC(C(=O)NCC(=O)NC1CC1)c1nc2ccc(-c3ccc(C(=O)N4CCOCC4)cc3)cc2s1 (racemic)

test system: not listed separately; assay: Half life in BALB/c mouse at 10 mg/kg, po; format: ADME, organism-based; details: in vivo

half-life [h] | Compound
8.5 | N#CC(C(=O)NCC(=O)NC1CC1)c1nc2ccc(-c3ccccc3)cc2s1 (racemic)

biological target: T2, Cytochrome P450 1A2 (Homo sapiens, UniProt P05177); assay: Inhibition of CYP1A2 (unknown origin); format: ADME; details: not given
T2 sequence (P05177 whole entry): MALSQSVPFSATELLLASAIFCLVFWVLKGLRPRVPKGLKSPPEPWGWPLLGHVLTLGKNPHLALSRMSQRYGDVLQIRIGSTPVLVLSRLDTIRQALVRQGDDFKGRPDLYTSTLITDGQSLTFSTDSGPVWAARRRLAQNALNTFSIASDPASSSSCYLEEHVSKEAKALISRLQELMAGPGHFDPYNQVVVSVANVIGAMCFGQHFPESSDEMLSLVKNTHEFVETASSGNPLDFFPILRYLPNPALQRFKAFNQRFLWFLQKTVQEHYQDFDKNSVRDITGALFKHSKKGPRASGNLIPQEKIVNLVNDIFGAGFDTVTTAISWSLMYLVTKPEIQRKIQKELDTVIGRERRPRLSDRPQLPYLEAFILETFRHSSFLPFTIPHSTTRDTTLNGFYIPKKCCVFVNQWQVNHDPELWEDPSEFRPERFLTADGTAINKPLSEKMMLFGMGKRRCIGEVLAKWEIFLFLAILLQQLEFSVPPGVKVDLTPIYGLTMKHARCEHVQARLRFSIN

IC50 [µM] | Compound
> 18 | N#CC(C(=O)NCC(=O)NC1CC1)c1nc2ccc(-c3ccccc3)cc2s1 (racemic)
> 18 | N#CC(C(=O)NCC(=O)NC1CC1)c1nc2ccc(-c3ccc(C(=O)N4CCOCC4)cc3)cc2s1 (racemic)

test system: not listed separately; assay: Permeability of compound at pH 7.4 by PAMPA; format: ADME; details: read-out: permeability

Papp [×10⁻⁶ cm/s] | Compound
84.5 | N#CC(C(=O)NCC(=O)NC1CC1)c1nc2ccc(-c3ccccc3)cc2s1 (racemic)
0.4 | N#CC(C(=O)NCC(=O)NC1CC1)c1nc2ccc(-c3ccc(C(=O)N4CCOCC4)cc3)cc2s1 (racemic)

test system: not listed separately; assay: Plasma concentration in BALB/c mouse at 50 mg/kg, ip measured at 24 hrs post dose; format: ADME, organism-based; details: not given

concentration at 24 h [µM] | Compound
1.66 | N#CC(C(=O)NCC(=O)NC1CC1)c1nc2ccc(-c3ccccc3)cc2s1 (racemic)

biological target: Cytochrome P450 2D6 (Homo sapiens, UniProt P10635); assay: Inhibition of CYP2D6 (unknown origin); format: ADME; details: not given
Sequence (P10635 whole entry): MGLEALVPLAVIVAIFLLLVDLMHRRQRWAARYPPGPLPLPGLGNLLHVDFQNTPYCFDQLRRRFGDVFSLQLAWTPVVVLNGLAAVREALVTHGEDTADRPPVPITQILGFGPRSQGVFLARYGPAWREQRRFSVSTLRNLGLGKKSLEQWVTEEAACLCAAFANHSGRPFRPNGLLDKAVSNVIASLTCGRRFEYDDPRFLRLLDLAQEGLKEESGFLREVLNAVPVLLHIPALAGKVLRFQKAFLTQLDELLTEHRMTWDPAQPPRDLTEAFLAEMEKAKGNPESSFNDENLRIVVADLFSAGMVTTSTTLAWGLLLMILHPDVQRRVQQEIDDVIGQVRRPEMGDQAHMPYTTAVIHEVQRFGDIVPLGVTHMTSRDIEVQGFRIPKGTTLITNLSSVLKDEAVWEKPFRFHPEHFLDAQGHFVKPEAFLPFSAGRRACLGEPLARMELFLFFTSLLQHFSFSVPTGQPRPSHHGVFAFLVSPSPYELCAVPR

IC50 [µM] | Compound
> 18 | N#CC(C(=O)NCC(=O)NC1CC1)c1nc2ccc(-c3ccccc3)cc2s1 (racemic)
> 18 | N#CC(C(=O)NCC(=O)NC1CC1)c1nc2ccc(-c3ccc(C(=O)N4CCOCC4)cc3)cc2s1 (racemic)

test system: not listed separately; assay: Cmax in BALB/c mouse at 50 mg/kg, ip; format: ADME, organism-based; set-up: dose 50 mg/kg, route intraperitoneal; details: in vivo

Cmax [µM] | Compound
28 | N#CC(C(=O)NCC(=O)NC1CC1)c1nc2ccc(-c3ccccc3)cc2s1 (racemic)

biological target: T3, Endothelial lipase (Homo sapiens) (UniProt Q9Y5X9); assay: Reversible inhibition of endothelial lipase (unknown origin) assessed as recovery of enzyme activity measured after 24 hrs by dialysis based assay relative to control; set-up: scale not given: the % may be the effect or the level left; details: not given
T3 sequence (whole entry): T1 sequence (Q9Y5X9 whole entry)

Activity [%] | Compound
88 | N#CC(C(=O)NCC(=O)NC1CC1)c1nc2ccc(-c3ccccc3)cc2s1 (racemic)

test system: Mus musculus; assay: Antiatherosclerotic in C57BL/6 mouse assessed as increase in HDL-cholesterol level in plasma at 50 mg/kg, ip qd administrated for 2 days and measured 6 hrs post last dose by FPLC analysis; format: functional, organism-based; details: not given

Compound | Activity
N#CC(C(=O)NCC(=O)NC1CC1)c1nc2ccc(-c3ccccc3)cc2s1 (racemic) | inactive

test system: not listed separately; assay: Metabolic stability in mouse liver microsomes assessed as parent compound remaining at 0.5 uM preincubated with compound followed by NADPH addition and measured after 10 mins; format: ADME, Microsome; details: read-out: Stability

remaining at 10 min, 0.5 µM [%] | Compound
86 | N#CC(C(=O)NCC(=O)NC1CC1)c1nc2ccc(-c3ccccc3)cc2s1 (racemic)
100 | N#CC(C(=O)NCC(=O)NC1CC1)c1nc2ccc(-c3ccc(C(=O)N4CCOCC4)cc3)cc2s1 (racemic)

test system: not listed separately; assay: Metabolic stability in human liver microsomes assessed as parent compound remaining at 0.5 uM preincubated with compound followed by NADPH addition and measured after 10 mins; format: ADME, Microsome; details: read-out: Stability

remaining at 10 min, 0.5 µM [%] | Compound
91 | N#CC(C(=O)NCC(=O)NC1CC1)c1nc2ccc(-c3ccccc3)cc2s1 (racemic)
98 | N#CC(C(=O)NCC(=O)NC1CC1)c1nc2ccc(-c3ccc(C(=O)N4CCOCC4)cc3)cc2s1 (racemic)

test system: not listed separately; assay: Cmax in BALB/c mouse at 10 mg/kg, po; format: ADME, organism-based; set-up: dose 10 mg/kg, route oral; details: in vivo

Cmax [µM] | Compound
6.6 | N#CC(C(=O)NCC(=O)NC1CC1)c1nc2ccc(-c3ccccc3)cc2s1 (racemic)

test system: not listed separately; assay: Permeability across basolateral to apical side in human Caco2 cells; format: ADME, cell-based; details: Caco-2, read-out: permeability

Papp B→A [×10⁻⁶ cm/s] | Compound
24.6 | N#CC(C(=O)NCC(=O)NC1CC1)c1nc2ccc(-c3ccccc3)cc2s1 (racemic)
18.4 | N#CC(C(=O)NCC(=O)NC1CC1)c1nc2ccc(-c3ccc(C(=O)N4CCOCC4)cc3)cc2s1 (racemic)

biological target: T4, Hepatic triacylglycerol lipase (Homo sapiens, UniProt P11150); assay: Inhibition of hepatic lipase (unknown origin); details: not given
T4 sequence (P11150 whole entry): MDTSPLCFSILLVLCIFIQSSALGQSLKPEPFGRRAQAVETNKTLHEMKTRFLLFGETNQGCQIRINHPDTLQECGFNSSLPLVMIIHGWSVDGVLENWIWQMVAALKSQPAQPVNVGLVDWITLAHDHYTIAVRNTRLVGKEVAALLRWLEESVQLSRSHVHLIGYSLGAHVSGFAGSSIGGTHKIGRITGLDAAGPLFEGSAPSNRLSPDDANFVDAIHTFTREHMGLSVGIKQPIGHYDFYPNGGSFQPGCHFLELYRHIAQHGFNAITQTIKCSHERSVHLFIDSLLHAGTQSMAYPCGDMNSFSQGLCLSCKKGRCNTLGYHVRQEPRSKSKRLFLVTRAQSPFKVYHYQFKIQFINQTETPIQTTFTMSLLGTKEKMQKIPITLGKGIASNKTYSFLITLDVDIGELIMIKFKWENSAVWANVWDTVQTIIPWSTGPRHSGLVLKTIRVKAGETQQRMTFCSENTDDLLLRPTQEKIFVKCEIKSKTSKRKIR

IC50 [µM] | Compound
0.0054 | N#CC(C(=O)NCC(=O)NC1CC1)c1nc2ccc(-c3ccccc3)cc2s1 (racemic)
0.3 | N#CC(C(=O)NCC(=O)NC1CC1)c1nc2ccc(-c3ccc(C(=O)N4CCOCC4)cc3)cc2s1 (racemic)
